Active and inactive are the calls of the source.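 Rule for the calls: active = EC50 of 10 µM or lower, the dose giving half of maximal activation; inactive = the rest.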
What follows are molecules tested on MG132 cells, BRM-dependent luciferase reporter, 24 h (assay: dose-dependent BRM function restoration – cell-based, luminescence, dose response, late-stage follow-up (AID 720660)).

Row | Structure (SMILES) | EC50
1 | COc1ccc(-c2nc(C#N)c(NC3CC3)o2)cc1 | > 91.2 µM (inactive)
2 | Cc1nc(NC(=O)c2cccc(Br)c2)sc1C | > 91.2 µM (inactive)
3 | Cc1ccc(Nc2nc(-c3ccccc3)c(C)s2)cc1 | > 91.2 µM (inactive)
4 | O=C(NCC1(c2nc(-c3ccccc3)cs2)CCOCC1)c1cccc(-c2noc(C(F)(F)F)n2)c1 | > 91.2 µM (inactive)
5 | Oc1ccccc1OCc1nc2ccccc2s1 | > 91.2 µM (inactive)
6 | Cc1cc(C)c2nc(NC(=O)C(C)C)sc2c1 | > 91.2 µM (inactive)
7 | Clc1ccc(Cc2nc(-c3ccccc3)cs2)cc1 | > 91.2 µM (inactive)

Reference: PubChem BioAssay AID720660 (The Scripps Research Institute Molecular Screening Center, 2013)
